Data set [1] can be described thus: Kinetic solubility of SCY-078 freebase (MeOH desolvate, amorphous freebase). To be noted: residual solid by XRPD. The data set is classed as physicochemical. The method, then: Kinetic Solubility of SCY-078 Freebase: The kinetic solubility of SCY-078 MeOH desolvate and SCY-078 amorphous freebase was evaluated in SGF media, FaSSIF media, FeSSIF media, dextrose buffer (pH 5.5), phosphate buffer (pH 6.0), and phosphate buffer (pH 7.5) at room temperature. First, solid SCY-078 MeOH desolvate or SCY-078 amorphous freebase (˜15 mg) was weighed into a 4-mL vial. Then the relevant media (3.0 mL) was added and the suspensions were stirred on a rolling incubator (25 rpm) at room temperature for 1 hour, 4 hours, and 24 hours respectively. After stirring, 0.5 mL of suspension was centrifuged and filtered (0.45 μm). The residual solids were analyzed by XRPD, and the supernatant was measured by HPLC and pH meter.

The nature of data set [2]: Kinetic solubility of trifluoroacetate Types A and B and HCl Type I (alternative procedure: SGF, FaSSIF and FeSSIF alternative media, acetate pH 5.5, phosphate pH 6.0 alternative media). The following applies: residual solid by XRPD. The protocol: An alternative media (“FaSSIF alternative media”) was used to study the trifluoroacetate salts (Type A and B) and the HCl Type I salt. More specifically, the media was prepared by weighing 0.17 g of sodium phosphate monobasic (NaH2PO4, anhydrous), 0.021 g of sodium hydroxide, and 0.31 g of sodium chloride into a 50-mL volumetric flask and was dissolve with approximately 48 mL of purified water. The pH was adjusted to exactly 6.5 using 1 M HCl or 1 M NaOH and diluted to volume with purified water. 0.11 g of SIF powder was then added, stirred and sonicated until all the powder was completely dissolved. The solution was equilibrated for 2 hours at RT before use. The solution can be stored at RT for 48 hours or 4° C. for 7 days and should be equilibrated to RT before use
An alternative media (“FeSSIF alternative media”) was used to study the trifluoroacetate salts (Type A and B) and the HCl Type I salt. More specifically, the media was prepared by transferring 0.41 mL of glacial acid and weighing 0.20 g of sodium hydroxide, 0.59 g of sodium chloride into a 50-mL volumetric flask. This was dissolved with approximately 48 mL of purified water. The pH was adjusted to exactly 5.0 using 1 M HCl or 1 M NaOH and diluted to volume with purified water. 0.56 g of SIF powder was added, stirred and sonicated until all the powder is completely dissolved. The solution can be stored at RT for 48 hours or 4° C. for 7 days and should be equilibrated to RT before use.
Acetate Buffer (pH 5.5) Preparation—The acetate buffer (pH 5.5) used for the trifluoroacetate salts (Type A and B) and the HCl Type I salt was prepared by placing 0.60 g sodium acetate (NaC2H3O2.3H2O) in a 100-mL volumetric flask, adding 3 mL of 2 M acetic acid solution, and then adding purified water to volume.
An alternative media (“phosphate (pH 6.0) alternative media”) was used to study the trifluoroacetate salts (Type A and B) and the HCl Type I salt. More specifically, the media was prepared by dissolving 2.72 g of 0.2 M monobasic potassium phosphate (KH2PO4) in purified water, and diluting with purified water t 100 mL. 0.8 g of 0.2 M sodium hydroxide in purified water was diluted with purified water to 100 mL. Then 50 mL of the 0.2 M monobasic potassium phosphate solution was placed in a 200-mL volumetric flask, 5.6 mL of 0.2 M sodium hydroxide solution was added, and then purified water was added to volume.
The trifluoroacetate salts (Type A and B) and the HCl Type I salt were tested using the following alternative procedure. First, 15 mg, 36 mg or 90 mg solid was weighted into a 4-mL plastic tube, and 3 mL of relevant media was added before leaving the suspension on a rolling incubator (25 r/min). For SCF, 90 mg of solid was used. For FaSSIF, acetate buffer (pH 5.5), and phosphate buffer (pH 6.0), 15 mg solid was used. For FeSSIF, 36 mg of solid was used. 1.0 mL aliquot of the suspension was sampled for centrifugation with the supernatant submitted for HPLC and pH measurement and solid for XRPD characterization at 1 hr, 4 hr and/or 24 hrs.
The solubility of trifluoroacetate Type A, Type B and HCl Type I was measured in SGF at ambient temperature. Approximately 90 mg of solid sample was weighted into a 4-mL centrifuge tube, and 3 mL of SGF buffer was added before leaving the suspension on a rolling incubator (25 r/min). 1.0 mL aliquot of the suspension was sampled for centrifugation (10000 rpm, 3 mins) the supernatant was analyzed by HPLC and pH measurement and solid by XRPD characterization at 1 hr, 4 hr and 24 hrs, respectively.
The solubility of trifluoroacetate Type A, Type B and hydrochloride Type I was measured in the FaSSIF alternative media at ambient temperature. Approximately 15 mg of solid sample was weighted into a 4-mL plastic tube, and 3 mL of the media was added before leaving the suspension on a rolling incubator (25 r/min).

Data set [3] is described as follows: Physical and chemical stability of trifluoroacetate Types A and B and HCl Type I for 1, 2, 4 and 8 weeks. Type of data set: physicochemical. The protocol: High Power Liquid Chromatography (HPLC) Method—An Agilent 1260 HPLC with DAD detector was utilized to test solubility or to test purity and stability. […] System suitability was tested by injecting standard solutions five times in each sample sequence, and the relative standard deviation of the peak areas was less than 2%.
Physical and chemical stability evaluation of trifluoroacetate Type A, trifluoroacetate Type B, and HCl Type I was performed at 25° C./60% RH, 40° C./75% RH and 60° C. for 1, 2, 4 and 8 weeks. In the experiments, approximately 20 mg of solid was placed into a 1.5-mL glass vial. The vials were stored under 25° C./60% RH (uncapped), 40° C./75% RH (uncapped) and 60° C. (capped) conditions for 8 weeks. XRPD analysis was then employed to check the crystalline form of the solid, and HPLC was utilized to determine the purity profile at 1, 2, 4 and 8 weeks. […] The solid form change of trifluoroacetate Type A at 2 and 4 weeks was postulated to the air-exposure when the sample was taken out for XRPD characterization.

Data set [4] can be described thus: Chemical and physical stability of SCY-078 salts on storage (25° C./60% RH, 40° C./75% RH, 60° C.). The data set is classed as physicochemical. The text has this: For all compounds tested other than the trifluoroacetate salts (Type A and B) and the HCl Type I and II salts, the conditions and parameters used for measuring solubility are shown in Table 2A and for measuring stability are showing in Table 3A. The conditions and parameters used for the solubility of the trifluoroacetate salts (Type A and B) and the HCl Type I and II salts are shown in Table 2B and for stability are shown in Table 3B.

[5] abbreviates: 25° C./60% RH (uncapped), 1 week.
Where [6] appears, read: 25° C./60% RH (uncapped), 2 weeks.
Setting [7] is: 25° C./60% RH (uncapped), 4 weeks.
[8] abbreviates: 25° C./60% RH (uncapped), 8 weeks.
Setting [9] is: 40° C./75% RH (uncapped), 1 week.
Where [10] appears, read: 40° C./75% RH (uncapped), 2 weeks.
Where [11] appears, read: 40° C./75% RH (uncapped), 4 weeks.
The mark [12] stands for this setting: 40° C./75% RH (uncapped), 8 weeks.
The mark [13] stands for this setting: 25° C./60% RH, open dish, 4 days.

Regarding `CC(C)[C@@H](C)[C@@]1(C)CC[C@]2(C)[C@H]3CC[C@@H]4[C@@]5(COC[C@]4(C)[C@@H](OC[C@](C)(N)C(C)(C)C)[C@H](n4ncnc4-c4ccncc4)C5)C3=CC[C@@]2(C)[C@@H]1C(=O)O` [Desolv.], the Form result was “NF 1” in data set [1] (FaSSIF, 1 hour); “NF 1” in data set [1] (FaSSIF, 4 hours); “NF 1” in data set [1] (FaSSIF, 24 hours); “NF 1” in data set [1] (FeSSIF, 1 hour); “NF 1” in data set [1] (FeSSIF, 4 hours); “NF 1” in data set [1] (FeSSIF, 24 hours). For the same compound, the Form entry in data set [1] (pH 5.5 buffer, 4 hours) was “NF 2”; in data set [1] (pH 5.5 buffer, 24 hours), “NF 2”; in data set [1] (pH 6.0 buffer, 4 hours) it was “NF 1”; in data set [1] (pH 6.0 buffer, 24 hours) it was “NF 3”; in data set [1] (pH 7.5 buffer, 4 hours), “Desolv”; in data set [1] (pH 7.5 buffer, 24 hours), “Desolv”.
Regarding `CC(C)[C@@H](C)[C@@]1(C)CC[C@]2(C)[C@H]3CC[C@@H]4[C@@]5(COC[C@]4(C)[C@@H](OC[C@](C)(N)C(C)(C)C)[C@H](n4ncnc4-c4ccncc4)C5)C3=CC[C@@]2(C)[C@@H]1C(=O)O.O=C(O)C(F)(F)F` [TFA Type A], the Form change result in data set [2] (FaSSIF alternative media, 1 hr) was “No”; in data set [2] (FaSSIF alternative media, 4 hrs), “No”; in data set [2] (FaSSIF alternative media, 24 hrs), “No”; in data set [2] (SGF, 1 hr) it was “No”; in data set [2] (SGF, 4 hrs), “No”; in data set [2] (SGF, 24 hrs), “No”. The Form change entry was “No” in data set [2] (acetate buffer (pH 5.5), 4 hrs) and “No” in data set [2] (acetate buffer (pH 5.5), 24 hrs). Further, the HPLC purity in data set [3] (setting [5]), in data set [3] (setting [6]), in data set [3] (setting [7]), in data set [3] (setting [8]), in data set [3] (setting [9]) and in data set [3] (setting [10]) was 99.9% in each case. Also, the HPLC purity in data set [3] (setting [11]) turned out to be 99.9%; in data set [3] (setting [12]) it was 99.9%; in data set [3] (60° C. (capped), 1 week) it was 99.9%; in data set [3] (60° C. (capped), 2 weeks), 99.9%; in data set [3] (60° C. (capped), 4 weeks) it was 99.9%; in data set [3] (60° C. (capped), 8 weeks), 99.9%. Moreover, the Solid form entry in data set [3] (setting [5]) is reported as “Type A”; in data set [3] (setting [6]), “Type B”; in data set [3] (setting [7]), “Type A + B”; in data set [3] (25° C./60% RH (uncapped), 6 weeks), “Type A”; in data set [3] (setting [8]) it was “Type A”; in data set [3] (setting [9]), “Type A”. Besides, the Solid form result in data set [3] (setting [10]) was “Type B”; in data set [3] (setting [11]), “Type A + B”; in data set [3] (40° C./75% RH (uncapped), 6 weeks) it was “Type A”; in data set [3] (setting [12]), “Type A”; in data set [3] (60° C. (capped), 1 week), “Type A”; in data set [3] (60° C. (capped), 2 weeks) it was “Type B”. Also, the Solid form entry in data set [3] (60° C. (capped), 4 weeks) is reported as “Type A + B”; in data set [3] (60° C. (capped), 6 weeks) it was “Type A”; in data set [3] (60° C. (capped), 8 weeks) it was “Type A”. For the same compound, the “Initial HPLC purity” value in data set [3] (Initial) is given as 99.9%.
On to `CC(C)[C@@H](C)[C@@]1(C)CC[C@]2(C)[C@H]3CC[C@@H]4[C@@]5(COC[C@]4(C)[C@@H](OC[C@](C)(N)C(C)(C)C)[C@H](n4ncnc4-c4ccncc4)C5)C3=CC[C@@]2(C)[C@@H]1C(=O)O.O=C(O)CC(O)(CC(=O)O)C(=O)O` [Type M], for which the “Impurity % by HPLC” value in data set [4] (setting [13]) worked out at 0.39%; in data set [4] (40° C./75% RH, open dish, 4 days), 0.00%; in data set [4] (60° C. closed, 4 days), 0.63%; in data set [4] (Initial) it was 0.42%. The “Solid form” value in data set [4] (setting [13]) was “Type M”; in data set [4] (40° C./75% RH, open dish, 4 days, *One peak change was observed), “Type M*”; in data set [4] (60° C. closed, 4 days) it was “Type M”.
As to `CC(C)[C@@H](C)[C@@]1(C)CC[C@]2(C)[C@H]3CC[C@@H]4[C@@]5(COC[C@]4(C)[C@@H](OC[C@](C)(N)C(C)(C)C)[C@H](n4ncnc4-c4ccncc4)C5)C3=CC[C@@]2(C)[C@@H]1C(=O)O.O=C(O)CC(O)(CC(=O)O)C(=O)O` [Type S], the “Impurity % by HPLC” value in data set [4] (25° C./60% RH, open dish, 1 week) is on record as 0.03%; in data set [4] (40° C./75% RH, open dish, 1 week) it was 0.03%; in data set [4] (60° C., closed dish, 1 week), 0.11%; in data set [4] (Initial) it was 0.10%. For the same compound, the “Solid form” value is reported as “Type S**” in data set [4] (25° C./60% RH, open dish, 1 week, **Peak shifts were observed); “Type S**” in data set [4] (40° C./75% RH, open dish, 1 week, **Peak shifts were observed); “Type S” in data set [4] (60° C. closed, 1 week).

The values above are taken from patent US20190153024A1, “NOVEL SALTS AND POLYMORPHS OF SCY-078” (priority 2015, published 2019).
